Results published in patent US5023244A, “Anti-dementia agents” (Hoechst Japan Limited, priority 1986, dated 1991).

Tests used:
[1] = Acute toxicity (LD50) in mice by intraperitoneal administration; settings: mouse, in vivo, ip
[2] = Passive avoidance task, memory retention test after cycloheximide-induced amnesia (retrieval process); format: in vivo, ICR male mice; settings: cycloheximide 120 mg/kg i.p., test 24 h after training
Source text: The passive avoidance task and the induction of amnesia by cycloheximide are experimental methods usually employed (Naoki Yamazaki et al.: Jap. J. Psychopharmacol., 3, 127 (1983)). The detailed method is described below. The apparatus used for the experiment was a plastic box 24 cm in height, 20 cm in width and 23 cm in length with a floor of iron grids at the corner of which was placed a platform 8 cm in length, 8 cm in width and 1.5 cm in height. When a mouse placed in the box was subjected to electric stimulus with a current of 0.3 mA for a period of approximately 3 seconds, the mouse escaped onto the platform. After subsequent non-stimulus period of 8 seconds, the mouse was subjected to the electric stimulus for an additional period of approximately 5 seconds. By this method, the mouse acquired memory of aversion that the electric stimulus would be delivered whenever the animal got off the platform, thus the passive avoidance task was established. The learning was judged to be established if the mouse placed on the platform under non-stimulus condition immediately after the training remained on it for 30 seconds or longer.
The test to observe whether or not a mouse retained memory of aversion was performed 24 hours after the training and percent memory retention was calculated according to the following equation: [formula]
In order to induce deficits of memory, the animal was intraperitoneally administered 15 min prior to the training with a physiological saline solution of cycloheximide at a dose of 120 mg/kg., and then subjected to the electric stimulus for training.
A memory retention test was performed 24 hours after training. An intraperitoneal administration was done 75 min. prior to the test respectively for L-N^6 -phenylisopropyladenosine (Compound A) and N^6 -cyclohexyladenosine (Compound C), 60 min. prior to the test respectively for 2-chloroadenosine(Compound B) and adenosine-5'-(N-cyclopropyl)carboxamide (Compound E) and 45 min. prior to the test for adenosine-5'-(N-ethyl)carboxamide (Compound D).

[3] = 100 μg/kg i.p., 75 min prior to test

Compound: C[C@H](Cc1ccccc1)Nc1ncnc2c1ncn2[C@@H]1O[C@H](CO)[C@@H](O)[C@H]1O [Compound A, L-N^6 -phenylisopropyladenosine]
- LD50 [1]: 31 mg/kg
- Percent memory retention ([2]; 50 μg/kg i.p., 75 min prior to test): 36.8%
- Percent memory retention [2, 3]: 55.0%

Compound: Nc1nc(Cl)nc2c1ncn2[C@@H]1O[C@H](CO)[C@@H](O)[C@H]1O [Compound B, 2-chloroadenosine]
- LD50 [1]: 45 mg/kg
- Percent memory retention ([2]; 500 μg/kg i.p., 60 min prior to test): 35.0%
- Percent memory retention ([2]; 1000 μg/kg i.p., 60 min prior to test): 52.4%

Compound: OC[C@H]1O[C@@H](n2cnc3c(NC4CCCCC4)ncnc32)[C@H](O)[C@@H]1O [Compound C, N^6 -cyclohexyladenosine]
- Percent memory retention ([2]; 10 μg/kg i.p., 75 min prior to test): 14.8%
- Percent memory retention [2, 3]: 20.8%
- Percent memory retention ([2]; 300 μg/kg i.p., 75 min prior to test): 66.7%

Compound: CCNC(=O)[C@H]1O[C@@H](n2cnc3c(N)ncnc32)[C@H](O)[C@@H]1O [Compound D, adenosine-5'-(N-ethyl)carboxamide]
- Percent memory retention ([2]; 3 μg/kg i.p., 45 min prior to test): 39.3%
- Percent memory retention ([2]; 7 μg/kg i.p., 45 min prior to test): 42.3%
- Percent memory retention ([2]; 10 μg/kg i.p., 45 min prior to test): 51.4%

Compound: Nc1ncnc2c1ncn2[C@@H]1O[C@H](C(=O)NC2CC2)[C@@H](O)[C@H]1O [Compound E, adenosine-5'-(N-cyclopropyl)carboxamide]
- Percent memory retention ([2]; 1 μg/kg i.p., 60 min prior to test): 25.0%
- Percent memory retention ([2]; 3 μg/kg i.p., 60 min prior to test): 40.0%
- Percent memory retention ([2]; 10 μg/kg i.p., 60 min prior to test): 62.1%
- Percent memory retention ([2]; 30 μg/kg i.p., 60 min prior to test): 66.7%
